Measured values as given in US20190216712A1, “Hair dye composition, preparation method, and application method thereof” (SHANGHAI CLINICAL ENGINE TECHNOLOGY DEVELOPMENT CO., LTD., priority 2017, published 2019).
Read-outs that look alike come from different tables or passages of the source.

System: human epithelial-derived cells (293T)
Assay: CCK-8 test of killing ability to cells (Embodiment 14)
Assay type: cell-based
Description: According to embodiments 1-3, water-soluble pigment solubilizing carrier dye was prepared, while cationic carrier ([…]) was used. First, human epithelial-derived cells (293T) were cultured, which was divided into three groups corresponding to a polyethyleneimine-co-isopropylacrylamide (water-soluble pigment solubilizing carrier) group, a polyethyleneimine-co-isopropylacrylamide (a water-soluble pigment solubilizing carrier) dye, and a commercially available cationic carrier group; the cells were cultured with commercially available cell culture medium ([…]) for 24 hours to obtain cells in the logarithmic growth phase; at this time, the same concentration gradient of polyethyleneimine-co-isopropylacrylamide (water-soluble pigment solubilizing carrier), polyethyleneimine-co-isopropylacrylamide (a water-soluble pigment solubilizing carrier)-pigment, and commercially available cationic carrier were added to the culture dishes of the three groups of cells; after 24 hours of culture, the CCK-8 test kit was used to examine the killing ability of the three groups of systems to the cells.

## CCCCCCCCCCCCOS(=O)(=O)[O-].[Na+] [commercially available cationic carrier, sodium lauryl sulfate]
293T cells, concentration gradient, 24 hours of culture
  damage of cells: cell death was rapid

## polyethyleneimine-co-isopropylacrylamide
  damage of cells: hardly damaged
